Assay results from patent publication US10407396B2, “Crystalline form of selexipag” (Apotex Inc., priority 2017, dated 2019).

How the values were obtained:
[1] = drug substance in UPTRAVI, per AusPAR, cited from earlier work
[2] = PXRD study of crystal form stability on storage; format: physicochemical; details: sealed vial under nitrogen atmosphere, room temperature and ambient humidity
Method: Selexipag Form APO-I can be characterized by a PXRD diffractogram comprising, among other peaks, characteristic peaks, expressed in degrees 2θ (±0.2°), at 7.5°, 12.4° and 21.7°. Preferably, the PXRD diffractogram further comprises at least three peaks, expressed in degrees 2θ (±0.2°), selected from the group consisting of 9.4°, 11.6°, 14.1°, 15.1°, 16.7°, 17.2°, 18.3°, 19.9°, 22.3° and 23.6°. More preferably, the PXRD diffractogram further comprises peaks, expressed in degrees 2θ (±0.2°), at 9.4°, 11.6°, 14.1°, 15.1°, 16.7°, 17.2°, 18.3°, 19.9°, 22.3° and 23.6°. PXRD studies of samples of Selexipag Form APO-I maintained under a nitrogen atmosphere in a sealed vial have shown that this crystal form is stable following storage at room temperature and ambient humidity for at least 14 days. PXRD diffractograms were recorded on a Bruker D8 Discover powder X-ray diffractometer (Bruker-AXS, Karlsruhe, Germany). The generator was a Micro-focus X-ray source (IMSTube: Cu tube with 1.54184 Å) with a voltage of 50 kV and current of 1.00 mA, using a divergence slit of 0.3 mm and collimator of 0.3 mm. For each sample, one frame was collected using a still scan with a Pilatus 3R-100 kA detector at the distance of 154.72 mm from the sample. Raw data were evaluated using the program EVA (Bruker-AXS, Karlsruhe, Germany).

Row | SMILES | Biopharmaceutics Classification System (BCS) class ([1]; Class II = high permeability but low solubility) | solubility behaviour [1] | crystal form stable following storage (PXRD) [2]
1 | CC(C)N(CCCCOCC(=O)NS(C)(=O)=O)c1cnc(-c2ccccc2)c(-c2ccccc2)n1 [Form I, 2-{4-[N-(5,6-diphenylpyrazin-2-yl)-N-isopropylamino]butyloxy}-N-(methylsulfonyl)acetamide] | Class II | pH dependent solubility | 
2 | CC(C)N(CCCCOCC(=O)NS(C)(=O)=O)c1cnc(-c2ccccc2)c(-c2ccccc2)n1 [Selexipag Form APO-I, 2-{4-[N-(5,6-diphenylpyrazin-2-yl)-N-isopropylamino]butyloxy}-N-(methylsulfonyl)acetamide] |  |  | at least 14 days
